Results taken from PubChem BioAssay AID1918935 (Molecular Pharmacology Branch, DTP, NCI, 2023).
“And” between values parts separate entries of the source, which are not always exact repeats. Identical values can stand only once.

System: 324938-238-R-J1-PDC complex spheroid viability
Experiment: Anticancer human tumor 324938-238-R-J1-PDC patient-derived bladder carcinoma cell line growth inhibition
Details: for viability, T/C: stronger effect = lower value; active means viability on the fitted dose curve at most 10% of control; inactive means the rest
Source text: Multicellular complex tumor spheroid response to LSD1 Inhibitor Iadademstat in combination with a variety of drugs and investigational agents in selected tumor cell lines
The current study was undertaken to assess response to LSD1 inhibitors in combination with standard-of-care drugs and investigational agents in solid tumor complex spheroid models as well as in the K-562 leukemia. Complex spheroids include a stromal component modeled by human endothelial cells (HUVEC) and fibroblasts modeled by human mesenchymal stem cells (MSCs). The concentration ranges selected for each drug and investigational agent were based upon clinically achievable concentrations if the clinical Cmax of the agent was known.
Compounds. The drugs and investigational agents used in this study are listed on Table 1. All of the agents used, including staurosporine (NSC755774) and gemcitabine (NSC613327), were obtained from the Developmental Therapeutics Program, NCI. FDA-approved anticancer drugs are available from the NCI at http://dtp.nci.nih.gov/branches/dscb/oncology_drugset_explanation.html. Drugs and investigational agents were >95% pure by proton nuclear magnetic resonance (NMR) and liquid chromatography/mass spectrometry (LC/MS). Stock solutions were prepared at 400x in DMSO, stored at -70 degrees C, and diluted in fresh medium prior to their use. The final concentration of DMSO in cell culture wells never exceeded 0.25% (v/v). The FDA-approved anticancer drug set is available from the Developmental Therapeutics Program at https://dtp.cancer.gov/organization/dscb/obtaining/available_plates.htm. All drugs and investigational agents were tested over a range starting from a high concentration at or near the clinical Cmax and decreasing in half-log increments. If the clinical Cmax for an agent had not been determined, the highest concentration tested was 10 microM.
Cell Lines. The patient-derived cancer cell (PDC) lines: 292921-168-R-J2-PDC, K24384-001-R-PDC, and 521955-158-R2-J5-PDC pancreatic carcinomas, 556581-035-R-J1 ovarian carcinoma, 324938-238-R-J1-PDC, 855422-203-R-J1-PDC and 883617-216-R-J1-PDC urothelial bladder carcinomas, 743489-274-T-PDC renal cell carcinoma, 138582-R-J1 Merkel cell tumor, K60290-347-R-J1 and K57222-313-R-J1-PDC glioblastomas, 653999-131-R-J2-PDC, LG0703-F948-PDC, and 349418-098-R-PDC non-small cell lung carcinomas, 885512-296-R-J2-PDC, 171881-019-R-J1-PDC breast carcinomas and 186277-243-T-J2-PDC and 233499-124-R-J2-PDC colon carcinomas were obtained from the NCI Patient-Derived Models Repository (PDMR, https://pdmr.cancer.gov). The established cell lines NCI/ADR-RES (RRID:CVCL_14520 and OVCAR-5 (RRID:CVCL_1628) ovarian carcinomas, 786-O (RRID:CVCL_1051) and A498 (RRID:CVCL_A498) renal cell carcinoma, NCI-H211 (ATCC, cat. CRL-5824; RRID:CVCL_1529), NCI-H196 (ATCC, cat. CRL-5823, RRID:CVCL_1509), SW 1271 (ATCC, cat. CRL-2177, RRID:CVCL_1716) and NCI-H1876 (ATCC, cat. CRL-5902, RRID:CVCL_1503) small cell lung carcinomas, MDA-MB-231 (RRID:CVCL_0062) and MDA-MB-468 (RRID:CVCL_0419)breast carcinomas (10-12). Pooled donor human umbilical vein endothelial cells (HUVEC, Lonza, cat. CC-2519) and human mesenchymal stem cells (hMSC, Lonza, cat. PT-2501) were purchased from Lonza (Walkersville, MD).
Cell Culture. All cells were maintained in an incubator at 37 degrees C and 5% CO2 with 95% humidity. The PDC lines were cultured according to standard operating procedures established by the NCI PDMR (https://pdmr.cancer.gov). Briefly all PDCs were thawed and cultured in Matrigel-coated flasks prepared with a working solution of 1X Ham's F-12 nutrient mix, without supplementation (Invitrogen, Waltham, MA, cat. 11765054), 100 U/mL penicillin-streptomycin (Invitrogen, cat. 15140122), and 2.5% Matrigel (Corning Inc., Corning, NY, cat. 354248) for the first three passages. […]
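Further: spheroids also contain HUVEC and human MSCs and agents combined with iadademstat; spheroids exposed to agents for 7 days before readout.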

O=C(C=Cn1cnc(-c2cc(C(F)(F)F)cc(C(F)(F)F)c2)n1)NNc1cnccn1 + NC1CCC(NC2CC2c2ccccc2)CC1
5.06 nM: IC50 (curve of first compound, second compound 1 µM)
active: viability, T/C (second compound 0.1 µM, first compound 0.1 µM) 10.1% | viability, T/C (second compound 0.1 µM, first compound 0.316 µM) 6.81% | viability, T/C (second compound 0.1 µM, first compound 1 µM) 3.54% | viability, T/C (second compound 0.316 µM, first compound 0.1 µM) 9.54% | viability, T/C (second compound 0.316 µM, first compound 0.316 µM) 6.12% | viability, T/C (second compound 0.316 µM, first compound 1 µM) 3.24% | viability, T/C (second compound 1 µM, first compound 0.316 µM) 5.1% | viability, T/C (second compound 1 µM, first compound 1 µM) 3.42% | viability, T/C (second compound 3.16 µM, first compound 0.316 µM) 6.8% | viability, T/C (second compound 3.16 µM, first compound 1 µM) 4.08% | viability, T/C (second compound 10 µM, first compound 0.316 µM) 7.05% | viability, T/C (second compound 10 µM, first compound 1 µM) 4.89%
< 3.16 nM: IC50 (curve of first compound, second compound 0.316 µM)
inactive: viability, T/C (second compound 0.1 µM, first compound 0.00316 µM) 55.5% | viability, T/C (second compound 0.1 µM, first compound 0.01 µM) 39.2% | viability, T/C (second compound 0.1 µM, first compound 0.0316 µM) 19.9% | viability, T/C (second compound 0.316 µM, first compound 0.00316 µM) 49.3% | viability, T/C (second compound 0.316 µM, first compound 0.01 µM) 37.7% | viability, T/C (second compound 0.316 µM, first compound 0.0316 µM) 19.9% | viability, T/C (second compound 1 µM, first compound 0.00316 µM) 56.9% | viability, T/C (second compound 1 µM, first compound 0.01 µM) 40% | viability, T/C (second compound 1 µM, first compound 0.0316 µM) 22.6% | viability, T/C (second compound 1 µM, first compound 0.1 µM) 11.8% | viability, T/C (second compound 3.16 µM, first compound 0.00316 µM) 53.8% | viability, T/C (second compound 3.16 µM, first compound 0.01 µM) 38.8% | viability, T/C (second compound 3.16 µM, first compound 0.0316 µM) 22.6% | viability, T/C (second compound 3.16 µM, first compound 0.1 µM) 12% | viability, T/C (second compound 10 µM, first compound 0.00316 µM) 53.4% | viability, T/C (second compound 10 µM, first compound 0.01 µM) 37.1% | viability, T/C (second compound 10 µM, first compound 0.0316 µM) 25.7% | viability, T/C (second compound 10 µM, first compound 0.1 µM) 15.3%
4.01 nM: IC50 (curve of first compound, second compound 10 µM)
4.22 nM: IC50 (curve of first compound, second compound 3.16 µM)
4.66 nM: IC50 (curve of first compound, second compound 0.1 µM)

Nc1ncn(C2CC(O)C(CO)O2)c(=O)n1 (configuration not stated)
927 nM and 722 nM: IC50 (curve of compound)
inactive: viability, T/C (compound 0.00316 µM) 98.2% and 98.1% | viability, T/C (compound 0.01 µM) 90.8% and 96.7% | viability, T/C (compound 0.0316 µM) 81% and 89.9% | viability, T/C (compound 0.1 µM) 75.9% and 69.5% | viability, T/C (compound 0.316 µM) 62.2% and 57.2% | viability, T/C (compound 1 µM) 48.6% and 46.9%
